Measured values published in PMC5427163, “Simple and cost-effective liquid chromatography-mass spectrometry method to measure dabrafenib quantitatively and six metabolites semi-quantitatively in human plasma” (Analytical and Bioanalytical Chemistry, 2017).
Marks after values point to notes of the source that are not given here. Each block holds one molecule with its values, some of them ahead of it.

Columns and labels:
[1] = cited from earlier work; for Variation of plasma concentration during a 12-h period: after a 150-mg dose of dabrafenib at steady state (day 15)
[2] = tested on: BRAFV600E; set-up: method as in earlier work; conditions: cited from earlier work
[3] = LC-MS/MS measurement of dabrafenib and metabolites in patient plasma at steady state; type: in vivo, human; conditions: for Plasma concentration in typical patient sample: Fig. 3, single patient sample; for Diff (difference between the highest and lowest concentrations) / Median C (plasma concentration) / Range of plasma concentration: patient plasma, steady state, dabrafenib 150 mg BID orally
Protocol: Seven blood samples were obtained between 14 and 17 h after last dose from four different patients with disseminated melanoma after 1, 2, or 3 months of treatment with dabrafenib at the full recommended dose of 150 mg BID orally. […] Plasma was collected after centrifugation, immediately frozen, and stored at −80 °C until analysis. The study protocol was approved by the Ethical Review Board in Stockholm (DNR 2011/1980-31/1) and written informed consent was obtained from patients prior to study entry. Drug-free ethylenediaminetetraacetic acid (EDTA) plasma was donated from six volunteers (three males and three females) with an average age of 26 (22–30) years.
Fifty microliters aliquots of plasma was thawed and precipitated with 200 μL of internal standard mixture containing erlotinib-d6 (200 ng/mL) in acetonitrile. Following vortex mixing, the samples were centrifuged (17530 RCF, 5 min, 4 °C). The supernatant (150 μL) was mixed with 150 μL water and transferred to a 0.7-mL 96-well plate.
Calibration standards for dabrafenib were prepared at seven levels in the concentration range 5–5000 ng/mL (5-15-60-250-1000-3750-5000) by diluting the corresponding working stock solutions 1:10 with drug-free plasma. The upper limit of quantification (ULOQ) was selected based on the highest expected dabrafenib concentration, and the lower limit of quantification (LLOQ) was selected based on observed carry-over from the ULOQ. LOD was not determined as LLOQ was limited by the carry-over. QC samples were prepared separately from the calibration standards at four levels (LLOQ-low-medium-high, 5-15-250-3750 ng/ml).
Due to the lack of reference materials, the six metabolites were semi-quantitatively determined using the calibration curve for dabrafenib. The bias caused by, among other things, differences in recovery and ionization efficiency was not corrected for. This bias is indicated by the addition of an asterisk to the units of metabolite concentrations.

[4] = Clinical pharmacokinetics of dabrafenib (literature); type: in vivo, human; conditions: plasma
[5] = set-up: method as in PMID 22735384; conditions: phase III trial; cited from earlier work
[6] = Stability of dabrafenib in spiked whole blood, plasma and processed samples; type: in vitro ADME, human; conditions: 72 h 4°C
[7] = as above; type: in vitro ADME, human; conditions: for Concentration relative to nominal concentration (Rel): long term, −80 °C for 16 months
Protocol: Stability was evaluated at the low and high QC levels. Processed sample stability by re-injection of calibration and QC samples after 24 h at 5 °C. Freeze-thaw stability (n = 3) was determined for three freeze-thaw cycles at −80 °C. Short-term stability of dabrafenib was investigated in whole blood and plasma using spiked drug-free plasma (n = 2) stored at room temperature or 5 °C for 0, 24, 48, and 72 h, respectively. Long-term stability of dabrafenib (QC low, QC middle, and QC high; n = 3) was determined for a sample stored at −80 °C for 16 months. Accuracy within ±15% of the nominal value was required to consider dabrafenib stable under all conditions.

[8] = semi-quantification based on the calibration curve of dabrafenib
[9] = 14-17 h after last dose, semi-quantification based on the calibration curve of dabrafenib

SMILES: CC(C)(CO)c1nc(-c2cccc(NS(=O)(=O)c3c(F)cccc3F)c2F)c(-c2ccnc(N)n2)s1 [Hydroxy-Dab, hydroxy-dabrafenib]
- Variation of plasma concentration during a 12-h period [1]: 7 fold
- IC50 relative to dabrafenib (fold higher) [2]: approximately 3 fold
- Plasma concentration in typical patient sample [3, 8]: 280 ng/mL
- Diff (difference between the highest and lowest concentrations) [3]: 15-fold
- Median C (plasma concentration) [3, 9]: 74^a ng/ml
- Range of plasma concentration [3, 8]: (19–278) ng/ml

SMILES: CCCS(=O)(=O)Nc1ccc(F)c(C(=O)c2c[nH]c3ncc(-c4ccc(Cl)cc4)cc23)c1F [vemurafenib]
- Inter-patient variability [1]: 30–60%

SMILES: CC(C)c1nc(-c2cccc(NS(=O)(=O)c3c(F)cccc3F)c2F)c(-c2ccnc(N)n2)s1 [Desmethyl-Dab, desmethyl-dabrafenib]
- Variation of plasma concentration during a 12-h period [1]: around 1.5 fold
- IC50 relative to dabrafenib (fold higher) [2]: ~2 fold
- Plasma concentration in typical patient sample [3, 8]: 660 ng/mL
- Diff (difference between the highest and lowest concentrations) [3]: 4-fold
- Median C (plasma concentration) [3, 9]: 400^a ng/ml
- Range of plasma concentration [3, 8]: (170–660) ng/ml

SMILES: C=C(COC1OC(C(=O)O)C(O)C(O)C1O)c1nc(-c2cccc(NS(=O)(=O)c3c(F)cccc3F)c2F)c(-c2ccnc(N)n2)s1 (stereo not drawn) [Gluc met]
- Plasma concentration in typical patient sample [3, 8]: 32 ng/mL
- Diff (difference between the highest and lowest concentrations) [3]: 3-fold
- Median C (plasma concentration) [3, 9]: 38^a ng/ml
- Range of plasma concentration [3, 8]: (22–65)^b ng/ml

Now from value to molecule, other results behind:

- Concentration reported by Falchook et al. relative to this study (fold higher) [4]: 8 fold
- Plasma concentration in typical patient sample [3, 8]: 400 ng/mL
- Diff (difference between the highest and lowest concentrations) [3]: 3-fold
- Median C (plasma concentration) [3, 9]: 450^a ng/ml
- Range of plasma concentration [3, 8]: (230–690) ng/ml
SMILES: CC(C)(C(=O)O)c1nc(-c2cccc(NS(=O)(=O)c3c(F)cccc3F)c2F)c(-c2ccnc(N)n2)s1 [Carboxy-Dab, carboxy-dabrafenib]
- Variation of plasma concentration during a 12-h period [1]: around 1.5 fold

- Plasma concentration in lowest patient sample ([3]; Fig. 2): 75 ng/mL
- Plasma concentration in typical patient sample ([3]; quantitative): 1400 ng/mL
- Diff (difference between the highest and lowest concentrations) [3]: 19-fold
- Median C (plasma concentration) ([3]; 14-17 h after last dose, 7 samples from 4 patients, quantitative): 400 ng/mL
- Range of plasma concentration ([3]; 14-17 h after last dose, quantitative): (75–1400) ng/ml
- Concentration relative to initial sample concentration (Rel) ([6]; plasma, Low QC): 109%
- Concentration relative to initial sample concentration (Rel) ([6]; whole blood, High QC): 99%
- Concentration relative to initial sample concentration (Rel) ([6]; whole blood, Low QC): 99%
- Long-term stability in plasma ([7]; 16 months of storage at −80 °C): stable
- Stability of processed samples ([7]; 24 h at 5 °C, stable = accuracy within ±15% of nominal): stable
- Short-term stability in whole blood or plasma ([7]; 72 h at room temperature and at 5 °C, stable = accuracy within ±15% of nominal): stable
- Concentration relative to initial sample concentration (Rel) ([7]; plasma, High QC, 72 h 4°C): 106%
- Concentration relative to initial sample concentration (Rel) ([7]; plasma, High QC, 72 h RT): 101%
- Concentration relative to nominal concentration (Rel) ([7]; plasma, High QC): 106%
- Concentration relative to initial sample concentration (Rel) ([7]; plasma, High QC, three freeze-thaw cycles at −80 °C): 96%
- Concentration relative to initial sample concentration (Rel) ([7]; plasma, Low QC, 72 h RT): 98%
- Concentration relative to nominal concentration (Rel) ([7]; plasma, Low QC): 101%
- Concentration relative to initial sample concentration (Rel) ([7]; plasma, Low QC, three freeze-thaw cycles at −80 °C): 98%
- Concentration relative to initial sample concentration (Rel) ([7]; processed sample, High QC, 24 h 5°C): 89%
- Concentration relative to initial sample concentration (Rel) ([7]; processed sample, Low QC, 24 h 5°C): 87%
- Freeze-thaw stability in plasma ([7]; three freeze-thaw cycles): stable
- Concentration relative to initial sample concentration (Rel) ([7]; whole blood, High QC, 72 h RT): 95%
- Concentration relative to initial sample concentration (Rel) ([7]; whole blood, Low QC, 72 h RT): 94%
SMILES: CC(C)(C)c1nc(-c2cccc(NS(=O)(=O)c3c(F)cccc3F)c2F)c(-c2ccnc(N)n2)s1 [Dabrafenib]
- Variation of plasma concentration during a 12-h period [1]: 16 fold
- Inter-patient coefficient of variation (CV) in maximum concentration at steady state [1]: 73%
- Half-life ([1]; patients): 4.8 h
- Patients with adverse events of grade 2 or greater [5]: 53%

- Plasma concentration in typical patient sample [3, 8]: 550 ng/mL
- Diff (difference between the highest and lowest concentrations) [3]: 4-fold
- Median C (plasma concentration) [3, 9]: 400^a ng/ml
- Range of plasma concentration [3, 8]: (160–590) ng/ml
SMILES: C=C(C)c1nc(-c2cccc(NS(=O)(=O)c3c(F)cccc3F)c2F)c(-c2ccnc(N)n2)s1 [M31]
